Legend:
Assay type in all cases: cell-based, human
A549 (LC) = assay: MTT cell viability, A549; settings: 48 h / 24 hours, relative IC50
Procedure: (§1) Cell culture: In the following examples, unless otherwise specified, all cell lines are purchased from American Type Culture Collection and cultured in American Type Culture Collection (ATCC)-recommended media, with fetal bovine serum (FBS) to a final concentration of 10% and 1×penicillin/streptomycin at 37° C. with 5% CO2 in a cell culture incubator, unless otherwise specified. Unless otherwise specified, culture is 2D. Where culture is 3D, low attachment plates are used, with the same media. C4-2B (parental cell line and drug-resistant cells derived therefrom) are cultured in RPMI-1640 with 10% FBS. MDVR cells (an Enzalutamide-resistant variety of C4-2B prostate cancer cells formed as described in Example 4 below) are cultured as indicated for the parental C4-2B cells. 22RV1 Prostate Cancer (PC) cells (ATCC® CRL-2505™, a human prostate carcinoma cell line of epithelial morphology) are cultured in RPMI-1640 with 10% FBS. A549 cells (ATCC® CCL-185™, a human lung carcinoma cell line of epithelial morphology) are cultured in F-12K medium with 10% FBS. A549/DDP cells (Cells were described in DOI: 10.3892/mmr.2014.2163 and in doi: 10.7150/jca.19426; cisplatin resistant cells may be established from exposing parental A549 cells to cisplatin for an extended time). MDR A549/cisplatin lung adenocarcinoma cell line, drug resistant) are cultured in F-12K medium with 10% FBS. H1975 cells (ATCC® CRL-5908™, a human adenocarcinoma non-small cell lung cancer cell line of epithelial morphology) are cultured in RPMI-1640 medium with 10% FBS; H1975 cells are a cell model for human lung cancer that is resistant to Gefitinib (an EGFR inhibitor drug used for treatment of certain breast, lung and other cancers). H1650 cells (ATCC® CRL-5883™, a adenocarcinoma/bronchoalveolar carcinoma lung cancer cell line of epithelial morphology) are cultured in RPMI-1640 medium with 10% FBS. […]

A549DDP (LC) = assay: MTT cell viability, A549DDP; settings: 48 h / 24 hours, relative IC50
Procedure: as §1
[…] For each cell line, the IC50 is determined for each drug, i.e. the ELSD, the ALSD, and for the corresponding unconjugated statin (Simvastatin), in concentrations from 0.1-100 μM. […]

H1975 (LC) = assay: MTT cell viability, H1975; settings: relative IC50
Procedure: as §1

H1650 (LC) = assay: MTT cell viability, H1650; settings: relative IC50
Procedure: as §1

PC9 (LC) = assay: MTT cell viability, PC9; settings: 48 h / 24 hours, relative IC50
Procedure: as §1

H446 (LC) = assay: MTT cell viability, H446; settings: relative IC50
Procedure: as §1

SMILES	IC50 (A549 (LC); Homo sapiens) [µM]	IC50 (A549DDP (LC); Homo sapiens, A549/DDP) [µM]	IC50 (H1975 (LC); Homo sapiens, NCI-H1975, 48 h / 24 hours) [µM]	IC50 (H1650 (LC); Homo sapiens, NCI-H1650, 48 h / 24 hours) [µM]	IC50 (PC9 (LC); Homo sapiens) [µM]	IC50 (H446 (LC); Homo sapiens, NCI-H446, 48 h / 24 hours) [µM]	IC50 (A549 (LC)) [µM]	IC50 (A549DDP (LC)) [µM]	IC50 (H1975 (LC); 48 h / 24 hours) [µM]	IC50 (H1650 (LC); 48 h / 24 hours) [µM]	IC50 (PC9 (LC)) [µM]	IC50 (H446 (LC); 48 h / 24 hours) [µM]
CCC(C)(C)C(=O)O[C@H]1C[C@@H](C)C=C2C=C[C@H](C)[C@H](CC[C@@H]3C[C@@H](O)CC(=O)O3)[C@H]21 [Simvastatin]	> 50	30	> 50	33.3	33	39	–	–	–	–	–	–
CC1(C)C(/C=C/C2=C(Cl)C(=C/C=C3/N(CCCCCC(=O)O)c4ccccc4C3(C)C)/CCC2)=[N+](CCCCS(=O)(=O)[O-])c2ccccc21 [DZ1]	–	–	–	–	–	–	> 50	> 50	> 50	> 50	> 50	> 50

From patent US20230116399A1, “Tumor Homing Statin Derivatives” (Da Zen Theranostics, Inc., priority 2019, published 2023)
